Publication PMC10354740 (Journal of medicinal chemistry, 2022)
Values after ≈ are worked out from the molar mass of the structure shown. Read-outs that look alike come from different tables or passages of the source. One block for each compound: values may come before it.

Key:
[1] = biological target: T1, hA3AR (Homo sapiens, UniProt P0DMS8); conditions: for enhancement of agonist efficacy at 0.1 μM: modulator 0.1 μM; for effect on agonist 52 potency: modulator 1 μM (30–34: 0.1 and 1.0 μM), compared to control
T1 sequence (P0DMS8 1-318): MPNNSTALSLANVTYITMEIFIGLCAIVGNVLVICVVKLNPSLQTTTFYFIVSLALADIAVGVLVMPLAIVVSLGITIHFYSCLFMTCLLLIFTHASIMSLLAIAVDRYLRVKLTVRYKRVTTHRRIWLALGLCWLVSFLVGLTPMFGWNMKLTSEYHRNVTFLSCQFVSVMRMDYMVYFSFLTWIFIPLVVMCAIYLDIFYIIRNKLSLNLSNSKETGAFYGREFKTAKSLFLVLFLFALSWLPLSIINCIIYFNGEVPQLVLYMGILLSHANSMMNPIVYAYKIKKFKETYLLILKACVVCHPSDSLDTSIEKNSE

[2] = biological target: T1, hA3AR; conditions: modulator 0.1 μM; cited from earlier work
[3] = pION aqueous solubility pH 7.4; assay type: physicochemical; conditions: pION buffer
[4] = Pharmacokinetics in fasted Wistar rats; assay type: in vivo; conditions: rat
[5] = tested on: Caco-2 cells; experiment: Caco-2 cell permeability assay; assay type: in vitro ADME, human
[6] = biological target: T1, hA3AR; conditions: modulator 10 μM; 100 μM 51 added; control 26%
[7] = biological target: T2, hA1 AR (Homo sapiens, UniProt P30542); experiment: Orthosteric antagonist radioligand binding; conditions: concentrations as high as 10 μM
T2 sequence (P30542 1-326): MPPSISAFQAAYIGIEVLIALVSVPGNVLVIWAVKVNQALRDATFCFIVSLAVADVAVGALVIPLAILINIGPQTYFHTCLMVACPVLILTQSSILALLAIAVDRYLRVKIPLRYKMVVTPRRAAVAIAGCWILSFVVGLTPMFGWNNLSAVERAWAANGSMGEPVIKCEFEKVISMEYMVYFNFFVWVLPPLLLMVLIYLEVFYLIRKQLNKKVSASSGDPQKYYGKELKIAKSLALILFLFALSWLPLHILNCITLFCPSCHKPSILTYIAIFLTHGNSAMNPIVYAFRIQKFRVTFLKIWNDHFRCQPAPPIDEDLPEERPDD

[8] = biological target: hA2A AR (Homo sapiens, UniProt P29274); experiment: Orthosteric antagonist radioligand binding; conditions: concentrations as high as 10 μM
Sequence of hA2A AR (P29274 whole entry): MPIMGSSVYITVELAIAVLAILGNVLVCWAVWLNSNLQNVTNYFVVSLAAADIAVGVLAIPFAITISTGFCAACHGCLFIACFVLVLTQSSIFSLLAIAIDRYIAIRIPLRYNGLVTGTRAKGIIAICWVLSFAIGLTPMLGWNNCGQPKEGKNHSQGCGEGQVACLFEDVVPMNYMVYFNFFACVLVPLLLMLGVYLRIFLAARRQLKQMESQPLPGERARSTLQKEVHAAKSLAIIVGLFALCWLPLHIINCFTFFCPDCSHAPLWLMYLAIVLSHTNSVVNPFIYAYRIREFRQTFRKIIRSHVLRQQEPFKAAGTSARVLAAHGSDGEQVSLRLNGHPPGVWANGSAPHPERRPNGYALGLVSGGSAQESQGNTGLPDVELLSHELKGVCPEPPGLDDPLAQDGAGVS

[9] = biological target: T3, hA2B AR (Homo sapiens, UniProt P29275); experiment: Orthosteric antagonist radioligand binding; conditions: concentrations as high as 10 μM
T3 sequence (P29275 1-332): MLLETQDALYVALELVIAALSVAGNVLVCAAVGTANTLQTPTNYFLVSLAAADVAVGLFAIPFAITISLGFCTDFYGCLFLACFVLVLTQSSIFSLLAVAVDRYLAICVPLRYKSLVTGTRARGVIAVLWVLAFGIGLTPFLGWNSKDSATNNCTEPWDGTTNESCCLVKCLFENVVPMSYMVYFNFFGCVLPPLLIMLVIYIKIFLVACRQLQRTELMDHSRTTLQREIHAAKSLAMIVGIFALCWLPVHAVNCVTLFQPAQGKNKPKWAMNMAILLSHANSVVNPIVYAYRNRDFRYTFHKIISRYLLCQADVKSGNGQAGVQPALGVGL

[10] = Plasma protein binding, human; conditions: pH 7.4
[11] = biological target: CYP2C9 (Homo sapiens, UniProt P11712); experiment: CYP inhibition
Sequence of CYP2C9 (P11712 whole entry): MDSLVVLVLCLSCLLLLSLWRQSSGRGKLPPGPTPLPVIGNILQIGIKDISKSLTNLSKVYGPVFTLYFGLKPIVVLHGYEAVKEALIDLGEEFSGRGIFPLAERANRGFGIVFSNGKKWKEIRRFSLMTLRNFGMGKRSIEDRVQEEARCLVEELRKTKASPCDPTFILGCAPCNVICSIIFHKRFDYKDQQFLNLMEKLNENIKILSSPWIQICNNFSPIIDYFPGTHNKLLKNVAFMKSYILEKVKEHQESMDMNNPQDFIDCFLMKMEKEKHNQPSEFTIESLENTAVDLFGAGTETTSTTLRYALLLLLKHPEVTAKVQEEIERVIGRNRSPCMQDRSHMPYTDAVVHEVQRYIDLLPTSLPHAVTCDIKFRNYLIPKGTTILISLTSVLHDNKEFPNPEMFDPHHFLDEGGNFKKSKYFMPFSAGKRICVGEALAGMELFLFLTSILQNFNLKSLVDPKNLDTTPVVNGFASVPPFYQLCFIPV

SMILES: Clc1ccc(Nc2nc3ccccc3c3[nH]c(C45CC6CC(CC(C6)C4)C5)nc23)cc1Cl [Compound 12b]
enhancement of agonist efficacy at 0.1 μM [1]: significantly enhanced agonist efficacy
fold increase of agonist efficacy ([1]; modulator 1 μM): approximately 2 fold
fold improvement of agonist potency ([1]; modulator 1.0 μM, P = 0.058): ~4 fold

SMILES: Clc1ccc(Nc2nc3ccccc3c3nc(C4CCCCC4)[nH]c23)cc1Cl [Compound 7, N-(3,4-dichloro-phenyl)-2-cyclohexyl-1H-imidazo[4,5-c]quinolin-4-amine]
enhancement of agonist efficacy at 0.1 μM [2]: significantly enhanced agonist efficacy

SMILES: Clc1ccc(Nc2nc3ccccc3c3[nH]c(C4CC5C=CC4CC5)nc23)cc1Cl [Compound 29, 2-((1R,2R,4R)- and (1S,2S,4S))-Bicyclo[2.2.2]oct-5-en-2-yl)-N-(3,4-dichlorophenyl)-1H-imidazo[4,5-c]quinolin-4-amine]
effect on agonist EC50 over modulator concentrations ([1]; concentration-dependent): significantly decreasing the potency in a concentration-dependent manner
effect on agonist 52 potency [1]: did not influence agonist potency

enhancement of agonist efficacy at 0.1 μM [1]: significantly enhanced agonist efficacy
SMILES: Clc1ccc(Nc2nc3ccccc3c3[nH]c([C@@H]4C[C@@H]5CCC[C@@H](C5)C4)nc23)cc1Cl [Compound 27, 2-((1R,3s,5S)-Bicyclo[3.3.1]nonan-3-yl)-N-(3,4-dichlorophenyl)-1H-imidazo[4,5-c]quinolin-4-amine]

solubility at 18 h [3]: 0.92 µM (≈ 0.389 µg/mL)
Cmax ([4]; male, Wistar (RccHan:WIST), plasma, po, 10 mg/kg): 4.2 µM
clearance rate from plasma ([4]; 1 mg/kg p.o.): 7.45 mL/min/kg
clearance rate from plasma ([4]; 3 mg/kg p.o.): 26.33 mL/min/kg
clearance rate from plasma ([4]; 10 mg/kg p.o.): 16.2 mL/min/kg
Caco-2 permeability (Papp) apical to basolateral (A to B) ([5]; 10 μM): no measurable permeability
Caco-2 permeability (Papp) basolateral to apical (B to A) ([5]; 10 μM): no measurable permeability
Caco-2 permeability classification ([5]; A-B and B-A): low A-B and B-A permeability
SMILES: Clc1ccc(Nc2nc3ccccc3c3[nH]c(C4CCC=CCC4)nc23)cc1Cl [Compound 18, 2-(Cyclohept-4-en-1-yl)-N-(3,4-dichlorophenyl)-1H-imidazo[4,5-c]quinolin-4-amine]

SMILES: Clc1ccc(Nc2nc3ccccc3c3[nH]c([C@@H]4CC[C@@H]5C[C@@H]5CC4)nc23)cc1Cl [Compound 28, 2-((1R,4r,7S)-bicyclo[5.1.0]octan-4-yl)-N-(3,4-dichlorophenyl)-1H-imidazo[4,5-c]quinolin-4-amine]
fold increase of agonist efficacy ([1]; modulator 1 μM): approximately 2 fold
radioligand [125I]50 remaining bound 60 min after initiation of dissociation [6]: slowed agonist radioligand dissociation

SMILES: Clc1ccc(Nc2nc3ccccc3c3[nH]c(C4CC4)nc23)cc1Cl [Compound 17, 2-(Cyclopropyl)-N-(3,4-dichlorophenyl)-1H-imidazo[4,5-c]quinolin-4-amine]
inhibition of orthosteric antagonist binding at hA1 AR [7]: did not inhibit orthosteric antagonist binding
inhibition of orthosteric antagonist binding at hA2A AR [8]: did not inhibit orthosteric antagonist binding
inhibition of orthosteric antagonist binding at hA2B AR [9]: did not inhibit orthosteric antagonist binding

fraction unbound at 5 h, 10 μM [10]: 0.037
SMILES: CC(=O)CC(c1ccccc1)c1c(O)c2ccccc2oc1=O (centres unmarked) [Warfarin]

SMILES: Clc1ccc(Nc2nc3ccccc3c3[nH]c(C4CCCCCC4)nc23)cc1Cl [Compound 8]
enhancement of agonist efficacy at 0.1 μM [2]: significantly enhanced agonist efficacy

SMILES: Clc1ccc(COC(Cn2ccnc2)c2ccc(Cl)cc2Cl)c(Cl)c1 (centres unmarked) [Miconazole]
IC50 [11]: 380 nM

SMILES: Clc1ccc(Nc2nc3ccccc3c3[nH]c(C45CCC(CC4)C5)nc23)cc1Cl [Compound 25, 2-(Bicyclo[2.2.1]heptan-1-yl)-N-(3,4-dichlorophenyl)-1H-imidazo[4,5-c]quinolin-4-amine]
fold decrease in agonist potency compared to control ([1]; modulator 1 μM, P = 0.0257): 4 fold

SMILES: Clc1ccc(Nc2nc3ccccc3c3[nH]c(C45CCCC(CCC4)C5)nc23)cc1Cl [Compound 26, 2-(Bicyclo[3.3.1]nonan-1-yl)-N-(3,4-dichlorophenyl)-1H-imidazo[4,5-c]quinolin-4-amine]
effect on agonist 52 potency [1]: neither 12b nor 26 significantly improved agonist potency

SMILES: FC(F)(F)[C@H]1CC[C@H](c2nc3c(Nc4ccc(Cl)c(Cl)c4)nc4ccccc4c3[nH]2)CC1 [Compound 16, 2-(4-(Trifluoromethyl)cyclohexyl)-N-(3,4-dichlorophenyl)-1H-imidazo[4,5-c]quinolin-4-amine]
enhancement of agonist efficacy at 0.1 μM [1]: significantly enhanced agonist efficacy
effect on agonist 52 potency [1]: did not influence agonist potency

SMILES: FC(F)(F)CCC(CCC(F)(F)F)c1nc2c(Nc3ccc(Cl)c(Cl)c3)nc3ccccc3c2[nH]1 [Compound 15, 2-(1,1,1,7,7,7-Hexafluoroheptan-4-yl)-N-(3,4-dichlorophenyl)-1H-imidazo[4,5-c]quinolin-4-amine]
effect on agonist 52 potency [1]: did not influence agonist potency
radioligand [125I]50 remaining bound 60 min after initiation of dissociation [6]: did not slow agonist dissociation
